Laboratory results as given in patent US20250230171A1 (MOMA Therapeutics, Inc., priority 2023, published 2025).
Where two headings read alike, the source gives them in different places.

Legend:
[1] = target: biotinylated Avi-POLθ[2-894] (Homo sapiens (Human), UniProt O75417); experiment: POLθ ATPase assay (ADP-Glo); settings: n=2, read-out: Biochemical ATPase ADPGlo IC50
DLD1 BRCA2 (−/−) cells = experiment: 7-day cell viability assay (CellTiter-Glo), DLD1 BRCA2 (−/−); type: cell-based, human; settings: Homo sapiens, DLD-1, 168 h, n=2, read-out: Viability IC50 (uM) DLD1 BRCA2 null
Procedure, shortened: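 7-day growth assay in DLD1 cells with or without BRCA2; seeding densities chosen to keep log-linear growth. Compound: 10 uM top, 3-fold, 9 points. Endpoint: CTG ATP luminescence at RT.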

DLD1 WT cells = experiment: 7-day cell viability assay (CellTiter-Glo), DLD1 parental (WT); type: cell-based, human; settings: Homo sapiens, DLD-1, 168 h, n=2

Sequence of biotinylated Avi-POLθ[2-894] (O75417 2-894): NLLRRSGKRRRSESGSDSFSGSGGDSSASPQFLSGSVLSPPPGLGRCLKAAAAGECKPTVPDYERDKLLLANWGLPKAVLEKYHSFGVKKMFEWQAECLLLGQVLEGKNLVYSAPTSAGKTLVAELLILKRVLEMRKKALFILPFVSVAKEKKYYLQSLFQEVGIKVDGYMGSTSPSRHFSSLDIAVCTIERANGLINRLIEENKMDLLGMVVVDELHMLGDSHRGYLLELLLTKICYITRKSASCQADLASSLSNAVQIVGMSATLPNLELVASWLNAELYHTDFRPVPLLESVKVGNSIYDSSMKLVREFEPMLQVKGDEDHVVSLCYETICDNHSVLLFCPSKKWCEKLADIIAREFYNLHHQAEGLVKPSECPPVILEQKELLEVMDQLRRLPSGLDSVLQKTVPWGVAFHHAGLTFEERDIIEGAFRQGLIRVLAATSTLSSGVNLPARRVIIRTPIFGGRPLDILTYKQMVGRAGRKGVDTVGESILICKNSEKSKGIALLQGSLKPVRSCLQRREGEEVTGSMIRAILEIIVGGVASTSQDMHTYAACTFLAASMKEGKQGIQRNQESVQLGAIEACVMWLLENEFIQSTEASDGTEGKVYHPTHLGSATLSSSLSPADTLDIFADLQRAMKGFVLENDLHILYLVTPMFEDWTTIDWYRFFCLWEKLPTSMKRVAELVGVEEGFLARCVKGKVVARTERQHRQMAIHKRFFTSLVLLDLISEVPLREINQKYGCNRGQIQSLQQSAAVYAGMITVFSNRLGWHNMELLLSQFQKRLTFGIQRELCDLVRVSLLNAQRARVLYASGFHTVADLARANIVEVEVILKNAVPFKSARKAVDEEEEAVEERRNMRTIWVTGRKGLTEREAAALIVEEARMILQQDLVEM

Row | Structure (SMILES) | IC50 [1] [nM] | IC50 (DLD1 BRCA2 (−/−) cells; 7-day viability) [µM] | IC50 ([1]; POLθ ATPase, ADP-Glo) [nM] | IC50 (DLD1 BRCA2 (−/−) cells; 7-day CellTiter-Glo) [µM] | IC50 (DLD1 WT cells; 7-day viability) [µM] | IC50 (DLD1 WT cells; 7-day CellTiter-Glo) [µM]
1 | COc1cnc(Cl)cc1-c1cc(C)ncc1C(=O)Nc1nc2c(s1)CN(C(=O)c1cncc(Cl)c1)C2 [Example 28, 2′-chloro-N-(5-(5-chloronicotinoyl)-5,6-dihydro-4H-pyrrolo[3,4-d]thiazol-2-yl)-5′-methoxy-6-methyl-[4,4′-bipyridine]-3-carboxamide] | 1 to 15 | 0.001 to 0.1 | – | – | 0.5 to 2 | –
2 | COc1ccc(C#N)cc1-c1cc(C)ncc1C(=O)Nc1nc2c(s1)CN(C(=O)C1CC(CC(F)F)C1)C2 (stereo not drawn) | 1 to 15 | 0.5 to 2 | – | – | ≥ 10 | –
3 | COc1cnc(Cl)cc1-c1cc(C)ncc1C(=O)Nc1nc2c(s1)CN(C(=O)C1CC3(CC(OC)C3)C1)C2 (stereo not drawn) [Example 140] | 1 to 15 | 0.001 to 0.1 | – | – | 5 to 10 | –
4 | COc1cnc(Cl)cc1-c1cc(C)ncc1C(=O)Nc1nc2c(s1)CN(C(=O)[C@@H]1CCCOC1)C2 | 1 to 15 | 0.5 to 2 | – | – | ≥ 10 | –
5 | COc1ccc(C#N)cc1-c1cc(C)ncc1C(=O)Nc1nc2c(s1)CN(C(=O)[C@H]1C[C@@H](OC)C1)C2 | 1 to 15 | 0.5 to 2 | – | – | ≥ 10 | –
6 | COc1ccccc1-c1cc(C)ncc1C(=O)Nc1nc2c(s1)CN(C(=O)C1CC(OC(F)F)C1)C2 (racemic) | 1 to 15 | 0.25 to 0.5 | – | – | ≥ 10 | –
7 | COc1cnc(Cl)cc1-c1cc(C)ncc1C(=O)Nc1nc2c(s1)CN(C(=O)c1nn(C)c(C)c1Cl)C2 [Example 74, 2′-chloro-N-(5-(4-chloro-1,5-dimethyl-1H-pyrazole-3-carbonyl)-5,6-dihydro-4H-pyrrolo[3,4-d]thiazol-2-yl)-5′-methoxy-6-methyl-[4,4′-bipyridine]-3-carboxamide] | 1 to 15 | 0.001 to 0.1 | – | – | 0.001 to 0.5 | –
8 | COc1cnc(Cl)cc1-c1cc(C)ncc1C(=O)Nc1nc2c(s1)CN(C(=O)c1nn(C)c3c1CCC3)C2 [Example 47, 2′-chloro-5′-methoxy-6-methyl-N-(5-(1-methyl-1,4,5,6-tetrahydrocyclopenta[c]pyrazole-3-carbonyl)-5,6-dihydro-4H-pyrrolo[3,4-d]thiazol-2-yl)-[4,4′-bipyridine]-3-carboxamide] | 1 to 15 | 0.001 to 0.1 | – | – | 5 to 10 | –
9 | COc1ccc(C#N)cc1-c1cc(C)ncc1C(=O)Nc1nc2c(s1)CN(C(=O)C1CC(OC(C)C)C1)C2 (racemic) [Example 166] | 1 to 15 | 0.25 to 0.5 | – | – | ≥ 10 | –
10 | COc1cnc(Cl)cc1-c1cc(C)ncc1C(=O)Nc1nc2c(s1)CN(C(=O)c1c(Cl)cnn1C(C)C)C2 | 1 to 15 | 0.001 to 0.1 | – | – | ≥ 10 | –
11 | COc1cn2cncc2cc1-c1cc(C)ncc1C(=O)Nc1nc2c(s1)CN(C(=O)c1ccc(C(F)F)cn1)C2 [Example 117] | 1 to 15 | 0.001 to 0.1 | – | – | ≥ 10 | –
12 | COc1cnc(Cl)cc1-c1cc(C)ncc1C(=O)Nc1nc2c(s1)CN(C(=O)c1ncc(Cl)cn1)C2 [Example 35, 2′-chloro-N-(5-(5-chloropyrimidine-2-carbonyl)-5,6-dihydro-4H-pyrrolo[3,4-d]thiazol-2-yl)-5′-methoxy-6-methyl-[4,4′-bipyridine]-3-carboxamide] | 1 to 15 | 0.001 to 0.1 | – | – | 2 to 5 | –
13 | COc1ccc(C#N)cc1-c1cc(C)ncc1C(=O)Nc1nc2c(s1)CN(C(=O)c1c(Cl)cnn1C)C2 [Example 123] | 1 to 15 | 0.001 to 0.1 | – | – | ≥ 10 | –
14 | COc1cnc(Cl)cc1-c1cc(C)ncc1C(=O)Nc1nc2c(s1)CN(C(=O)c1cn(C)nc1Cl)C2 [Example 161] | 1 to 15 | 0.5 to 2 | – | – | ≥ 10 | –
15 | COc1ccc(C#N)cc1-c1cc(C)ncc1C(=O)Nc1nc2c(s1)CC(Nc1ccccc1)CC2 (stereo not drawn) | 1 to 15 | 0.1 to 0.25 | – | – | ≥ 10 | –
16 | COc1ccccc1-c1cc(C)ncc1C(=O)Nc1nc2c(s1)CN(C(=O)C1CC1)C2 | 150 to 900 | ≥ 2 | – | – | ≥ 10 | –
17 | COc1cnc(Cl)cc1-c1cc(C)ncc1C(=O)Nc1nc2c(s1)CC(Nc1ccccc1)CC2 (stereo not drawn) | 1 to 15 | 0.1 to 0.25 | – | – | ≥ 10 | –
18 | CCc1cc(C(=O)N2Cc3nc(NC(=O)c4cnc(C)cc4-c4cc(Cl)ncc4OC)sc3C2)nn1C [Example 58, 2′-chloro-N-(5-(5-ethyl-1-methyl-1H-pyrazole-3-carbonyl)-5,6-dihydro-4H-pyrrolo[3,4-d]thiazol-2-yl)-5′-methoxy-6-methyl-[4,4′-bipyridine]-3-carboxamide] | 1 to 15 | 0.001 to 0.1 | – | – | ≥ 10 | –
19 | COc1cnc(Cl)cc1-c1cc(C)ncc1C(=O)Nc1nc2c(s1)CN(C(=O)[C@H]1CC[C@@H](OC)CC1)C2 [Example 48, 2′-chloro-5′-methoxy-N-(5-((1s,4s)-4-methoxycyclohexane-1-carbonyl)-5,6-dibydro-4H-pyrrolo[3,4-d]thiazol-2-yl)-6-methyl-[4,4′-bipyridine]-3-carboxamide] | 1 to 15 | 0.001 to 0.1 | – | – | ≥ 10 | –

The next lines start with results.

Row | IC50 [1] [nM] | IC50 (DLD1 BRCA2 (−/−) cells; 7-day viability) [µM] | IC50 ([1]; POLθ ATPase, ADP-Glo) [nM] | IC50 (DLD1 BRCA2 (−/−) cells; 7-day CellTiter-Glo) [µM] | Structure (SMILES) | IC50 (DLD1 WT cells; 7-day viability) [µM] | IC50 (DLD1 WT cells; 7-day CellTiter-Glo) [µM]
20 | – | – | 1 to 15 | 0.001 to 0.1 | COc1cnc(Cl)cc1-c1cc(C)ncc1C(=O)Nc1nc2c(s1)CN(C(=O)c1ccc(F)c(C(F)F)c1)C2 | – | 5 to 10
21 | 1 to 15 | 0.001 to 0.1 | – | – | COc1ccc(C(=O)N2Cc3nc(NC(=O)c4cnc(C)cc4-c4cc(Cl)ncc4OC)sc3C2)nc1 [Example 121] | ≥ 10 | –
22 | 1 to 15 | 0.1 to 0.25 | – | – | COc1cnc(Cl)cc1-c1cc(C)ncc1C(=O)Nc1nc2c(s1)CN(C(=O)c1ccnn1C)C2 [Example 170] | ≥ 10 | –
23 | 1 to 15 | 0.001 to 0.1 | – | – | COc1cnc(Cl)cc1-c1cc(C)ncc1C(=O)Nc1nc2c(s1)CN(C(=O)c1cccnc1OC)C2 [Example 172] | ≥ 10 | –
24 | 1 to 15 | 0.25 to 0.5 | – | – | COc1cnc(Cl)cc1-c1cc(C)ncc1C(=O)Nc1nc2c(s1)CN(C(=O)c1nn(C)cc1OC)C2 [Example 157] | ≥ 10 | –
25 | – | – | 1 to 15 | 0.001 to 0.1 | COc1cnc(Cl)cc1-c1cc(C)ncc1C(=O)Nc1nc2c(s1)C(C)N(C(=O)c1ccc(C(F)(F)F)nc1OC)C2 (stereo not drawn) [Example 1040, 2′-chloro-5′-methoxy-N-(S-(2-methoxy-6-(trifluoromethyl)nicotinoyl)-6-methyl-5,6-dihydro-4H-pyrrolo[3,4-d]thiazol-2-yl)-6-methyl-[4,4′-bipyridine]-3-carboxamide] | – | ≥ 10
26 | – | – | 1 to 15 | 0.001 to 0.1 | COc1cnc(C(F)F)nc1-c1cc(C)ncc1C(=O)Nc1nc2c(s1)CN(C(=O)c1ccc(C(F)(F)F)nc1OC)C2 [Example 1042, 4-(2-(difluoromethyl)-5-methoxypyrimidin-4-yl)-N-(5-(2-methoxy-6-(trifluoromethyl)nicotinoyl)-5,6-dihydro-4H-pyrrolo[3,4-d]thiazol-2-yl)-6-methylnicotinamide] | – | ≥ 10
27 | – | – | 1 to 15 | 0.001 to 0.1 | COc1ccc(C(=O)N2Cc3nc(NC(=O)c4cnc(C)cc4-c4cc(Cl)ncc4OC)sc3C2)c(OC)n1 | – | 5 to 10
28 | 1 to 15 | 0.001 to 0.1 | – | – | COc1cnc(Cl)cc1-c1cc(C)ncc1C(=O)Nc1nc2c(s1)CN(C(=O)c1cccc(C(F)(F)F)n1)C2 [Example 21, 2′-chloro-5′-methoxy-6-methyl-N-(5-(6-(trifluoromethyl)picolinoyl)-5,6-dihydro-4H-pyrrolo[3,4-d]thiazol-2-yl)-[4,4′-bipyridine]-3-carboxamide] | ≥ 10 | –
